Assay results taken from patent US7906488B2, “Sphingolipids in treatment and prevention of steatosis and of steatosis or of hepatotoxicity and its sequelae” (Nederlandse Organisatie Voor …, priority 2004, dated 2011).

Columns and labels:
apoE3*-Leiden mice = assay: Example 2 overview: high fat high cholesterol W-diet with 1% phytosphingosine, 4 weeks; format: in vivo
Protocol: The experiment as described in example 1 was repeated several times but using 1% phytosphingosine as a supplement to the W-diet. Each time, one group (control group, consisting of 6 or 12 apoE3*-Leiden mice) was fed the high fat high cholesterol W-diet. Another group (treatment group, consisting of 6 or 12 apoE3*-Leiden mice), was fed the same high fat high cholesterol W-diet diet supplemented with 1% phytosphingosine.
In all mice the following parameters were determined (after 4 hours of fasting) after a diet period of 4 weeks: plasma total cholesterol (PTC), plasma triglycerides (PTG), plasma free fatty acids (PFFA), liver total cholesterol (LTC), liver triglycerides (LTG), liver cholesteryl esters (LCE), serum amyloid A (SAA) (mg/ml), fibrinogen (in mg/ml), body weight (in g), liver weight (in g), heart weight (in g), ALAT (in U/L).

APOE*3Leiden mice = assay: Plasma ALAT, SAA and fibrinogen (plasma inflammation markers); format: in vivo; details: 1% PS diet
Protocol: Plasma parameters: Tail blood samples were collected in EDTA-coated cups, or in paraoxon-coated capillaries to prevent lipolysis as described in Zambon et al. 1993 (Zambon et al. 1993. J. Lipid Res. 34:1021-1028). Plasma lipid parameters were determined using commercial kits for total cholesterol (C) Chol R1 from Roche Diagnostics, Mannheim, Germany), non-esterified free fatty acids (FFA) (NEFA-C; Wako chemicals, Neuss, Germany), Total triglycerides (TG) (Triglyceride GPO-Trinder; Sigma, St. Louis, Mo.), β-hydroxybutyrate (β-HB; Sigma) and ALAT (Reflotron GPT; Roche). Serum amyloid A (SAA) was measured by ELISA (Biosource, Nivelles, Belgium) and fibrinogen by sandwich ELISA, as described in Koopman et al., 2005 (Koopman et al. 2005. Fibrinol Proteol 11:19). For lipoproteins fractionation, groupwise-pooled plasma was size-fractionated by fast protein liquid chromatography (FPLC) on a Superose 6 column (Äkta; Amersham Pharmacia Biotech, Uppsala, Sweden). Fractions were assayed for total C and TG as described. Hepatic VLDL-TG production: The rate of hepatic VLDL-TG production, de novo apoB secretion, and VLDL composition were determined in overnight-fasted mice. Mice were anaesthetized with vetranquil/fentanyl/midazolam i.p., and injected i.v. with 0.1 ml PBS containing 100 μCi Tran^35S-label™ (ICN Biomedicals, Irvine, Calif.) to measure the de novo apoB synthesis. After 30 min, the animals received a Triton WR1339 injection (Tyloxapol, Sigma; 500 mg/kg body weight in 100 μl saline) to prevent systemic lipolysis of newly-secreted hepatic VLDL-TG (Aalto-Setala et al. 1992. J. Clin. Invest 90:1889-1900.27) Blood samples were drawn at 0, 15, 30, 60, and 90 min after Triton WR1339 injection and plasma TG concentrations were determined. After 90 min, the animals were sacrificed and blood was collected by retro-orbital bleeding for isolation of VLDL. VLDL composition: VLDL particles (d<1.019) were separated from other lipoproteins in plasma by density gradient ultra-centrifugation, as described in Jong et al., 1996 (Jong et al. 1996. Arterioscler. Thromb. Vasc. Biol. 16:934-940). Protein content of the VLDL fraction was determined by Lowry's assay (Lowry et al., 1951. J. Biol. Chem. 193:265-275), and TG and total C were determined as described above. Phospholipids and free cholesterol were determined using standard commercial kits (Wako Chemicals, Neuss, Germany). The ^35S-apoB content of VLDL was measured after selective precipitation of apoB with isopropanol as described elsewhere (Li et al. 1996 J. Lipid Res. 37:210-220; Pietzsch et al. 1995. Biochim. Biophys. Acta 1254:77-88). In vivo clearance of VLDL-like TG-rich particles: To determine whether 1% PS accelerates the clearance of TG-rich lipoproteins from plasma, we used radiolabeled emulsion particles as a tool. VLDL-like emulsion particles containing 200 μCi of [^3H]triolein and 20 μCi of [^14C]cholesteryl oleate were prepared and characterized as described in Rensen et al. 1997 (Rensen et al., 1997. J. Lipid Res. 38:1070-1084). Fed mice were anaesthetized as described above and laparotomy was performed. […] After taking the last liver and blood sample, the remainder of the liver, heart, spleen, hind limb muscle, and gonadal, perirenal and intestinal white adipose tissues were harvested. Lipids were extracted overnight at 60° C. in 500 μL of Solvable™, and radioactivity was counted as described in Rensen et al., 1997 (supra). RNA isolation and RT-PCR: Livers from 4 h-fasted mice fed 1% PS-containing diet or control Western-type diet for 5 weeks were removed immediately after sacrifice, flushed with cold 0.9% NaCl and snap frozen in liquid nitrogen. Total RNA was isolated as described by Chomczynski and Sacchi (Chomczynski, P. and Sacchi, N. 1987. Anal. Biochem. 162:156-159) by use of RNA-Bee™ (Campro Scientific, Berlin, Germany). cDNA synthesis was performed according to Bloks et al (Bloks et al., 2001. J. Lipid Res. 42:41-50). […]

SMILES: CCCCCCCCCCCCCC[C@@H](O)[C@@H](O)[C@@H](N)CO [PS, phytosphingosine]
- Plasma lipid levels (total cholesterol, triglycerides and free fatty acids) vs control (apoE3*-Leiden mice; 1% PS in W-diet): significantly decreased
- Liver lipid levels vs control (apoE3*-Leiden mice; 1% PS in diet W): significantly decreased
- ALAT vs control (apoE3*-Leiden mice; 1% PS in the diet): significantly lowered
- Plasma level of fibrinogen vs control (apoE3*-Leiden mice; 1% phytosphingosine in W-diet): increased
- Levels of serum amyloid A (SAA) vs control (apoE3*-Leiden mice; 1% phytosphingosine in W-diet, 4 hours fasting): significantly lower
- Plasma ALAT, % Δ vs control (APOE*3Leiden mice; 5 weeks): −79%
- Plasma SAA, % Δ vs control (APOE*3Leiden mice; 5 weeks): −74%
- Plasma ALAT (APOE*3Leiden mice; 5 weeks, 4 h-fasted): 41 ± 21 U/l
- Plasma SAA (APOE*3Leiden mice; 5 weeks, 4 h-fasted): 3 ± 0.3 µg/mL
- Plasma fibrinogen (APOE*3Leiden mice; 5 weeks, 4 h-fasted): 2.3 ± 0.7 mg/mL
- Decrease of ALAT levels vs control (APOE*3Leiden mice; p<0.05): 79%
- Decrease of SAA levels vs control (APOE*3Leiden mice; p<0.05): 74%
